# Assay results reported in US6103888A, “Mammalian cationic proteins having lipopolysaccharide binding and anti-coagulant activity” (priority 1999, dated 2000).
# Legend:
# Experiment in all cases: Bacterial proliferation, 3H-thymidine incorporation assay
# Assay type in all cases: cell-based
# E. coli (HB101) = conditions: for Percent inhibition of proliferation: E. coli (HB101)
# Experimental: (§1) Bacteria were grown in trypticase broth overnight.
# (§2) To corroborate the anti-bacterial activity shown in the CFU assays, inhibition of proliferation of bacteria was tested directly using a ^3 H-thymidine incorporation assay. […] In summary although there is some strain to strain variation in the IC50, all of the Gram-negativestrains tested in two different types of assays were sensitive to these anti-microbial peptides.
# Klebsiella pneumoniae = tested on: Klebsiella pneumoniae
# Experimental: as §1, §2
# Pseudomonas aeruginosa = tested on: Pseudomonas aeruginosa
# Experimental: as §1, §2
# Pseudomonas apacia = tested on: Pseudomonas apacia
# Experimental: as §1, §2
# [1] = tested on: Staphylococcus aureus, coagulase positive
# Experimental: as §1, §2
# Streptococcus pneumoniae = tested on: Streptococcus pneumoniae
# Experimental: as §1, §2
# Streptococcus pyogenes = tested on: Streptococcus pyogenes
# Experimental: as §1, §2
substance,measurement,setting,value
"RNIP: rabbit reactive nitrogen inhibitory protein, amino acids 135-171 of SEQ ID NO:4; purified from granulocytes (Tables 1-3) or synthetic (#197) (GLRKRLRKFRNKIKEKLKKIGQKIQGLLPKLAPRTDY)",Percent inhibition of proliferation,E. coli (HB101); RNIP 0.6 μg/ml,81%
same,Percent inhibition of proliferation,E. coli (HB101); RNIP 1.25 μg/ml,88%
same,Percent inhibition of proliferation,E. coli (HB101); RNIP 2.5 μg/ml,99%
same,Percent inhibition of proliferation,E. coli (HB101); RNIP 5.0 μg/ml,99%
same,Inhibition (%) of E. coli (HB101) proliferation,"E. coli (HB101); RNIP 2.5 μg/ml, FCS concentration 0 %",94 ± 10.3%
same,Inhibition (%) of E. coli (HB101) proliferation,"E. coli (HB101); RNIP 2.5 μg/ml, FCS concentration 1 %",91 ± 10.9%
same,Inhibition (%) of E. coli (HB101) proliferation,"E. coli (HB101); RNIP 2.5 μg/ml, FCS concentration 5 %",87 ± 3.1%
same,Inhibition (%) of E. coli (HB101) proliferation,"E. coli (HB101); RNIP 2.5 μg/ml, FCS concentration 10 %",78 ± 5.5%
same,Percent inhibition of proliferation,Klebsiella pneumoniae; RNIP 0.6 μg/ml,4%
same,Percent inhibition of proliferation,Klebsiella pneumoniae; RNIP 1.25 μg/ml,14%
same,Percent inhibition of proliferation,Klebsiella pneumoniae; RNIP 2.5 μg/ml,17%
same,Percent inhibition of proliferation,Klebsiella pneumoniae; RNIP 5.0 μg/ml,60%
same,Percent inhibition of proliferation,Pseudomonas aeruginosa; RNIP 0.6 μg/ml,75%
same,Percent inhibition of proliferation,Pseudomonas aeruginosa; RNIP 1.25 μg/ml,82%
same,Percent inhibition of proliferation,Pseudomonas aeruginosa; RNIP 2.5 μg/ml,96%
same,Percent inhibition of proliferation,Pseudomonas aeruginosa; RNIP 5.0 μg/ml,99%
same,Percent inhibition of proliferation,Pseudomonas apacia; RNIP 0.6 μg/ml,81%
same,Percent inhibition of proliferation,Pseudomonas apacia; RNIP 1.25 μg/ml,80%
same,Percent inhibition of proliferation,Pseudomonas apacia; RNIP 2.5 μg/ml,99%
same,Percent inhibition of proliferation,Pseudomonas apacia; RNIP 5.0 μg/ml,99%
same,Percent inhibition of proliferation,[1]; RNIP 0.6 μg/ml,23%
same,Percent inhibition of proliferation,[1]; RNIP 1.25 μg/ml,57%
same,Percent inhibition of proliferation,[1]; RNIP 2.5 μg/ml,72%
same,Percent inhibition of proliferation,[1]; RNIP 5.0 μg/ml,83%
same,Percent inhibition of proliferation,Streptococcus pneumoniae; RNIP 0.6 μg/ml,31%
same,Percent inhibition of proliferation,Streptococcus pneumoniae; RNIP 1.25 μg/ml,47%
same,Percent inhibition of proliferation,Streptococcus pneumoniae; RNIP 2.5 μg/ml,68%
same,Percent inhibition of proliferation,Streptococcus pneumoniae; RNIP 5.0 μg/ml,93%
same,Percent inhibition of proliferation,Streptococcus pyogenes; RNIP 0.6 μg/ml,74%
same,Percent inhibition of proliferation,Streptococcus pyogenes; RNIP 1.25 μg/ml,79%
same,Percent inhibition of proliferation,Streptococcus pyogenes; RNIP 2.5 μg/ml,90%
same,Percent inhibition of proliferation,Streptococcus pyogenes; RNIP 5.0 μg/ml,96%
